How the values were obtained:
Assay type in all cases: in vivo
[1] = system: diamondback moth (Plutella xylostella); experiment: Insecticidal effect on diamondback moth (Test Example 1); conditions: for Insecticidal effect on diamondback moth (Test Example 1), judged grade: mortality judged according to the criterion shown in Test Example 1; for Insecticidal effect, Test Example 1 / Insecticidal effect (Test Example 1), judged from mortality: diamondback moth; for Insecticidal effect (Test Example 1), judged from mortality: judged by the criterion of Test Example 1
Summary of the method: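 Oviposition by adults on Chinese cabbage seedling; immersion; air-dry; 25° C room. Count of hatched larvae at day 6 post-immersion → mortality → effect graded by criterion. Triplicate, 10 insects/group.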

[2] = system: common cutworm (Spodoptera Litura); experiment: Insecticidal effect on common cutworm (Test Example 2); conditions: 500 ppm, 25° C.; for Insecticidal effect on common cutworm (Test Example 2), judged grade / Insecticidal effect (Test Example 2), judged from mortality: cabbage leaf dip; for Insecticidal effect on common cutworm (Test Example 2), judged grade: second-instar larvae; for Insecticidal effect on common cutworm (Test Example 2), judged grade / Insecticidal effect, Test Example 2: eight days after inoculation; for Insecticidal effect, Test Example 2: cabbage leaf immersed; for Insecticidal effect (Test Example 2), judged from mortality: 8 days after inoculation
Summary of the method: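 2nd-instar larvae on air-dried treatment, closed dish, 25° C; dead/alive counted at day 8. Mortality calculated, graded by criterion. 3 × 10 insects.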

[3] = system: rice leafroller (Cnaphalocrocis medinalis); experiment: Insecticidal effect on rice leafroller (Test Example 3); conditions: 500 ppm, 25° C., humidity 70%; for Insecticidal effect on rice leafroller (Test Example 3), judged grade / Insecticidal effect (Test Example 3), judged from mortality: rice lamina dip; for Insecticidal effect on rice leafroller (Test Example 3), judged grade: third-instar larvae; for Insecticidal effect on rice leafroller (Test Example 3), judged grade / Insecticidal effect, Test Example 3: four days after inoculation; for Insecticidal effect, Test Example 3: rice lamina immersed; for Insecticidal effect (Test Example 3), judged from mortality: 4 days after inoculation
Summary of the method: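 Insecticidal effect is judged by a predefined criterion from dead/alive counts four days after infesting air-dried lamina with third-instar larvae, kept on moistened filter paper at 25° C, 70% humidity.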

[4] = judged by the mortality criterion of Test Example 1
[5] = second-instar larvae of common cutworm
[6] = third-instar larvae of rice leafroller
[7] = mortality judged by criterion of Test Example 1
[8] = common cutworm second-instar larvae
[9] = rice leafroller third-instar larvae

SMILES: Cc1cc(OC(F)(F)C(F)F)ccc1NC(=O)c1c(I)cccc1C(=O)NC(C)C [compound 453]
- Insecticidal effect on diamondback moth (Test Example 1), judged grade [1]: A (100)
- Insecticidal effect on common cutworm (Test Example 2), judged grade [2]: D (79-50)
- Insecticidal effect on rice leafroller (Test Example 3), judged grade [3]: A (100)

SMILES: CC(C)NC(=O)c1cccc(Br)c1C(=O)Nc1ccc(OC(F)(F)F)cc1Cl [compound 323]
- Insecticidal effect, Test Example 1 [1, 4]: A (100)
- Insecticidal effect, Test Example 2 [2, 5]: C (89-80)
- Insecticidal effect, Test Example 3 [3, 6]: A (100)

SMILES: Cc1ccccc1NC(=O)c1ccc(Cl)cc1C(=O)NC(C)C [compound 170]
- Insecticidal effect, Test Example 1 [1, 4]: A (100)
- Insecticidal effect, Test Example 2 [2, 5]: D (79-50)
- Insecticidal effect, Test Example 3 [3, 6]: B (99-90)

SMILES: Cc1cc(OC(F)(F)C(F)F)ccc1NC(=O)c1cccc(C(F)(F)F)c1C(=O)NC(C)C [compound 1206]
- Insecticidal effect, Test Example 1 [1, 7]: A (100)
- Insecticidal effect, Test Example 2 [2, 8]: A (100)
- Insecticidal effect, Test Example 3 [3, 9]: A (100)

SMILES: Cc1cc(OC(F)(F)C(F)F)c(Cl)cc1NC(=O)c1c(I)cccc1C(=O)NC(C)C [compound 454]
- Insecticidal effect on diamondback moth (Test Example 1), judged grade [1]: A (100)
- Insecticidal effect on common cutworm (Test Example 2), judged grade [2]: A (100)
- Insecticidal effect on rice leafroller (Test Example 3), judged grade [3]: A (100)

SMILES: Cc1c(F)cccc1NC(=O)c1cccc([N+](=O)[O-])c1C(=O)NC(C)C [compound 674]
- Insecticidal effect on diamondback moth (Test Example 1), judged grade [1]: A (100)
- Insecticidal effect on common cutworm (Test Example 2), judged grade [2]: D (79-50)
- Insecticidal effect on rice leafroller (Test Example 3), judged grade [3]: A (100)

SMILES: C#CC(C)(C)NC(=O)c1c(I)cccc1C(=O)Nc1ccc(OC(F)(F)F)cc1C [compound 1634]
- Insecticidal effect (Test Example 1), judged from mortality [1]: A (100)
- Insecticidal effect (Test Example 2), judged from mortality [2, 5]: A (100)
- Insecticidal effect (Test Example 3), judged from mortality [3, 6]: A (100)

SMILES: Cc1cc(C(F)(F)C(F)(F)F)ccc1NC(=O)c1c(I)cccc1C(=O)NC(C)C [compound 437]
- Insecticidal effect, Test Example 1 [1, 4]: A (100)
- Insecticidal effect, Test Example 2 [2, 5]: C (89-80)
- Insecticidal effect, Test Example 3 [3, 6]: A (100)

SMILES: CSc1cccc(C(=O)Nc2cccc(Cl)c2C)c1C(=O)NC(C)C [compound 780]
- Insecticidal effect on diamondback moth (Test Example 1), judged grade [1]: A (100)
- Insecticidal effect on common cutworm (Test Example 2), judged grade [2]: A (100)
- Insecticidal effect on rice leafroller (Test Example 3), judged grade [3]: A (100)

SMILES: CC(C)NC(=O)c1c(C(=O)Nc2ccc(SC(F)(F)F)cc2)cccc1[N+](=O)[O-] [compound 996]
- Insecticidal effect, Test Example 1 [1, 7]: A (100)
- Insecticidal effect, Test Example 2 [2, 8]: A (100)
- Insecticidal effect, Test Example 3 [3, 9]: A (100)

SMILES: Cc1cc(C(F)(F)C(F)(F)C(F)(F)C(F)(F)F)ccc1NC(=O)c1cccc(Cl)c1C(=O)NC(C)C [compound 132]
- Insecticidal effect, Test Example 1 [1, 4]: A (100)
- Insecticidal effect, Test Example 2 [2, 5]: A (100)
- Insecticidal effect, Test Example 3 [3, 6]: A (100)

SMILES: Cc1cc(OC(F)(F)C(F)(F)Br)ccc1NC(=O)c1c(Cl)cccc1C(=O)NC(C)C [compound 229]
- Insecticidal effect, Test Example 1 [1, 4]: A (100)
- Insecticidal effect, Test Example 2 [2, 5]: D (79-50)
- Insecticidal effect, Test Example 3 [3, 6]: A (100)

SMILES: CC(C)(C)NC(=O)c1c(I)cccc1C(=O)Nc1ccc(C(F)(F)C(F)(F)F)cc1Cl [compound 1428]
- Insecticidal effect, Test Example 1 [1, 7]: A (100)
- Insecticidal effect, Test Example 2 [2, 8]: A (100)
- Insecticidal effect, Test Example 3 [3, 9]: A (100)

SMILES: CC(C)NC(=O)c1c(Cl)cccc1C(=O)Nc1ccc(C(F)(F)C(F)(F)F)cc1C(F)(F)F [compound 1384]
- Insecticidal effect, Test Example 1 [1, 7]: A (100)
- Insecticidal effect, Test Example 2 [2, 8]: A (100)
- Insecticidal effect, Test Example 3 [3, 9]: A (100)

SMILES: CCN(CC)C(=O)c1c(C(=O)Nc2ccc(C(F)(F)C(F)(F)F)cc2C)cccc1[N+](=O)[O-] [compound 1550]
- Insecticidal effect (Test Example 1), judged from mortality [1]: A (100)
- Insecticidal effect (Test Example 2), judged from mortality [2, 5]: A (100)
- Insecticidal effect (Test Example 3), judged from mortality [3, 6]: A (100)

SMILES: CC(C)NC(=O)c1ccccc1C(=O)Nc1ccc(C(F)(F)C(F)(F)C(F)(F)F)cc1 [compound 27]
- Insecticidal effect, Test Example 1 [1, 4]: A (100)
- Insecticidal effect, Test Example 2 [2, 5]: A (100)
- Insecticidal effect, Test Example 3 [3, 6]: C (89-80)
